The values below come from patent US20230107642A1 (Erasca, Inc., priority 2020, published 2023).

One assay concerns the target T1, K-Ras G12C (Homo sapiens, UniProt P01116, G12C).
T1 construct: This protein contained 188 amino acids in total, including an N-terminal 6-Histidine tag; made in house; host or cells: E. coli BL21
Description: CAF assay (% CAF; method in Example 7, not in this part). The note with it: 10 uM compound, 1 h incubation. The assay is classed as binding.
On to `C=CC(=O)N1CCN(c2nc(=O)n3c4c(c(-c5cc(F)c(F)cc5F)c(Cl)cc24)SC[C@@H]3CN2CCn3c(nnc3C(F)(F)F)C2)[C@@H](C)C1` [Example 463, (3S)-7-((S)-4-acryloyl-2-methylpiperazin-1-yl)-9-chloro-3-((3-(trifluoromethyl)-5,6-dihydro-[1,2,4]triazolo[4,3-a]pyrazin-7(8H)-yl)methyl)-10-(2,4,5-trifluorophenyl)-2H-[1,4]thiazino[2,3,4-ij]quinazolin-5(3H)-one], for which the “% CAF @ 10 uM, 1h” value came to 69%.

In the case of `C=CC(=O)N1[C@H](C)CN(c2nc(=O)n3c4c(c(-c5ccc(F)cc5F)c(C(F)(F)F)cc24)SC[C@H](N(C)C)C3)C[C@@H]1C` [Example 586, (3R)-8-((3S,5R)-4-acryloyl-3,5-dimethylpiperazin-1-yl)-11-(2,4-difluorophenyl)-3-(dimethylamino)-10-(trifluoromethyl)-3,4-dihydro-2H,6H-[1,4]thiazepino[2,3,4-ij]quinazolin-6-one], the “% CAF @ 10 uM, 1h” value is given as 40%.

With `C=CC(=O)N1[C@H](C)CN(c2nc(=O)n3c4c(c(-c5ccc(F)cc5F)c(Cl)cc24)SC[C@H](OC)C3)C[C@@H]1C` [Example 526, (3R)-8-((3S,5R)-4-acryloyl-3,5-dimethylpiperazin-1-yl)-10-chloro-11-(2,4-difluorophenyl)-3-methoxy-3,4-dihydro-2H,6H-[1,4]thiazepino[2,3,4-ij]quinazolin-6-one], the “% CAF @ 10 uM, 1h” value was 93%.

On to `C=CC(=O)N1C[C@H](C)N(c2nc(=O)n3c4c(c(-c5ccc(F)cc5F)c(C(F)(F)F)cc24)SC[C@@H]3CN2CCN(CC(N)=O)CC2)C[C@H]1C` [Example 575, 2-(4-(((3S)-7-((2S,5R)-4-acryloyl-2,5-dimethylpiperazin-1-yl)-10-(2,4-difluorophenyl)-5-oxo-9-(trifluoromethyl)-3,5-dihydro-2H-[1,4]thiazino[2,3,4-ij]quinazolin-3-yl)methyl)piperazin-1-yl)acetamide], for which the “% CAF @ 10 uM, 1h” value came to 89.5%.

Take `C=C(F)C(=O)N1C2CC(=O)CC1CN(c1nc(=O)n3c4c(c(-c5ccc(F)cc5F)c(C(F)(F)F)cc14)SCC3)C2` [Example 418, 10-(2,4-difluorophenyl)-7-(9-(2-fluoroacryloyl)-7-oxo-3,9-diazabicyclo[3.3.1]nonan-3-yl)-9-(trifluoromethyl)-2,3-dihydro-5H-[1,4]thiazino[2,3,4-ij]quinazolin-5-one]: the “% CAF @ 10 uM, 1h” value came out at 58%.

As for `C=CC(=O)N1CCN(c2nc(=O)n3c4c(c(-c5ccc(F)cc5F)c(C(F)(F)F)cc24)S(=O)(=O)C[C@@H]3CC2CCN(CC(F)F)CC2)[C@@H](C)C1` [Example 429, (3S)-7-((S)-4-acryloyl-2-methylpiperazin-1-yl)-3-((1-(2,2-difluoroethyl)piperidin-4-yl)methyl)-10-(2,4-difluorophenyl)-9-(trifluoromethyl)-2H-[1,4]thiazino[2,3,4-ij]quinazolin-5(3H)-one 1,1-dioxide], the “% CAF @ 10 uM, 1h” value is given as 61%.

On to `C=CC(=O)N1C[C@H](C)N(c2nc(=O)n3c4c(c(-c5cc(Cl)c(F)cc5F)c(Cl)cc24)SC[C@@H]3CC2CCN(CC(F)F)CC2)C[C@H]1C` [Example 461, (3S)-7-((2S,5R)-4-acryloyl-2,5-dimethylpiperazin-1-yl)-9-chloro-10-(5-chloro-2,4-difluorophenyl)-3-((1-(2,2-difluoroethyl)piperidin-4-yl)methyl)-2H-[1,4]thiazino[2,3,4-ij]quinazolin-5(3H)-one], for which the “% CAF @ 10 uM, 1h” value is given as 79.5%.

Still in this assay, the particulars now being: 10 uM, 60 min; Table 2a.
As for `C=CC(=O)N1CCN(c2nc(=O)n3c4c(c(-c5ccc(F)cc5F)c(Cl)cc24)S(=O)(=O)CC3)[C@@H](C)C1` [Example 190, 7-((S)-4-acryloyl-2-methylpiperazin-1-yl)-9-chloro-10-(2,4-difluorophenyl)-2,3-dihydro-5H-[1,4]thiazino[2,3,4-ij]quinazolin-5-one 1,1-dioxide], the “% CAF 10 uM @ 60 min” value was determined as 88.8%.

Staying with this assay, now noted: 10 uM, 1 h; Table 3.
For `CN(C)C/C=C/C(=O)N1CCN(c2nc(=O)n3c4c(c(-c5ccc(F)cc5F)c(Cl)cc24)SCC3)C[C@H]1C#N` [Example 121, (2S)-4-(9-chloro-10-(2,4-difluorophenyl)-5-oxo-2,3-dihydro-5H-[1,4]thiazino[2,3,4-ij]quinazolin-7-yl)-1-((E)-4-(dimethylamino)but-2-enoyl)piperazine-2-carbonitrile], the “% CAF @ 10 uM, 1h” value was 3.6%.

Turning to `C=CC(=O)N1CCN(c2nc(=O)n3c4c(c(-c5ccc(F)cc5F)c(Cl)cc24)SC[C@H]3CC2CCN(C)CC2)[C@@H](C)C1` [Example 87, (3R)-7-((S)-4-acryloyl-2-methylpiperazin-1-yl)-9-chloro-10-(2,4-difluorophenyl)-3-((1-methylpiperidin-4-yl)methyl)-2,3-dihydro-5H-[1,4]thiazino[2,3,4-ij]quinazolin-5-one], the “% CAF @ 10 uM, 1h” value came out at 82.4%.

As for `C=CC(=O)N1CCN(c2nc(=O)n3c4c(c(-c5cccc6ccccc56)c(Cl)cc24)SCC3)[C@@H](C)C1` (atropisomer, axis not shown) [Example 172, 7-((S)-4-acryloyl-2-methylpiperazin-1-yl)-9-chloro-10-(naphthalen-1-yl)-2,3-dihydro-5H-[1,4]thiazino[2,3,4-ij]quinazolin-5-one], the “% CAF @ 10 uM, 1h” value amounted to 51.9%.

As for `C=CC(=O)N1CCN(c2nc(=O)n3c4c(c(-c5cccc6ccccc56)c(Cl)cc24)SCC3)[C@@H](C)C1` [Example 155, (S)-7-((S)-4-acryloyl-2-methylpiperazin-1-yl)-9-chloro-10-(naphthalen-1-yl)-2,3-dihydro-5H-[1,4]thiazino[2,3,4-ij]quinazolin-5-one], the “% CAF @ 10 uM, 1h” value amounted to 92.2%.

Turning to `C=CC(=O)N1CCN(c2nc(=O)n3c4c(c(-c5ccccc5F)c(Cl)cc24)SCC3)[C@@H](C)C1` [Example 160, 7-((S)-4-acryloyl-2-methylpiperazin-1-yl)-9-chloro-10-(2-fluorophenyl)-2,3-dihydro-5H-[1,4]thiazino[2,3,4-ij]quinazolin-5-one], the “% CAF @ 10 uM, 1h” value is listed as 72.7%.

Take `C=CC(=O)N1CCN(c2nc(=O)n3c4c(c(-c5ccc(F)cc5F)c(Cl)cc24)SCC3)C[C@@H]1CS(C)(=O)=O` [Example 186, 7-((R)-4-acryloyl-3-((methylsulfonyl)methyl)piperazin-1-yl)-9-chloro-10-(2,4-difluorophenyl)-2,3-dihydro-5H-[1,4]thiazino[2,3,4-ij]quinazolin-5-one]: the “% CAF @ 10 uM, 1h” value is on record as 92.6%.

Consider `C=CC(=O)N1CCN(c2nc(=O)n3c4c(c(-c5ccc(F)cc5F)c(Cl)cc24)S(=O)(=O)CC3)[C@@H](C)C1` [Example 190, 7-((S)-4-acryloyl-2-methylpiperazin-1-yl)-9-chloro-10-(2,4-difluorophenyl)-2,3-dihydro-5H-[1,4]thiazino[2,3,4-ij]quinazolin-5-one 1,1-dioxide], for which the “% CAF @ 10 uM, 1h” value was found to be 88.2%.

As to `C=CC(=O)N1CCN(c2nc(=O)n3c4c(c(-c5ccccc5C(F)(F)F)c(Cl)cc24)SCC3)[C@@H](C)C1` [Example 167, 7-((S)-4-acryloyl-2-methylpiperazin-1-yl)-9-chloro-10-(2-(trifluoromethyl)phenyl)-2,3-dihydro-5H-[1,4]thiazino[2,3,4-ij]quinazolin-5-one], the “% CAF @ 10 uM, 1h” value is recorded as 69.8%.

The same assay, now with this note: 10 μM, 1 h; Table 4.
Turning to `C=CC(=O)N1CCN(c2nc(=O)n3c4c(c(-c5c(F)cc(F)cc5F)c(Cl)cc24)SC[C@H]3CCCN2C[C@@H]3C[C@H]2CO3)[C@@H](C)C1` [Example 339, (R)-3-(3-((1S,4S)-2-oxa-5-azabicyclo[2.2.1]heptan-5-yl)propyl)-7-((S)-4-acryloyl-2-methylpiperazin-1-yl)-9-chloro-10-(2,4,6-trifluorophenyl)-2H-[1,4]thiazino[2,3,4-ij]quinazolin-5(3H)-one], the “% CAF @ 10 μM, 1 h” value came out at 96.6%.
